Test results taken from ChEMBL document CHEMBL4308841, “Synthesis, in vitro antiproliferative activity, and kinase inhibitory effects of pyrazole-containing diarylureas and diarylamides” (Eur J Med Chem, 2018).

Tests used:
SR = assay: Growth inhibition of human SR cells incubated for 48 hrs by sulforhodamine B assay; assay type: functional, cell-based
NCI-H322M [1] = assay: Growth inhibition of human NCI-H322M cells incubated for 48 hrs by sulforhodamine B assay; assay type: functional, cell-based
SNB-75 = assay: Growth inhibition of human SNB75 cells incubated for 48 hrs by sulforhodamine B assay; assay type: functional, cell-based; details: SNB-75, 48 h
U-251 = assay: Growth inhibition of human U251 cells incubated for 48 hrs by sulforhodamine B assay; assay type: functional, cell-based; details: U-251, 48 h
LOX IMVI [2] = assay: Growth inhibition of human LOXIMVI cells incubated for 48 hrs by sulforhodamine B assay; assay type: functional
Malme-3M = assay: Growth inhibition of human MALME-3M cells incubated for 48 hrs by sulforhodamine B assay; assay type: functional, cell-based
SK-MEL-28 = assay: Growth inhibition of human SK-MEL-28 cells incubated for 48 hrs by sulforhodamine B assay; assay type: functional, cell-based; details: SK-MEL-28, 48 h
IGROV-1 [3] = assay: Growth inhibition of human IGROV1 cells incubated for 48 hrs by sulforhodamine B assay; assay type: functional, cell-based; details: IGROV-1, 48 h
RPMI-8226 = assay: Growth inhibition of human RPMI8226 cells assessed as cell growth at 0.01 uM incubated for 48 hrs by sulforhodamine B assay relative to control; assay type: functional; details: RPMI-8226, 48 h, read-out: Activity
NCI-H322M [4] = assay: Growth inhibition of human NCI-H322M cells assessed as cell growth at 0.01 uM incubated for 48 hrs by sulforhodamine B assay relative to control; assay type: functional; details: read-out: Activity
SW-620 = assay: Growth inhibition of human SW620 cells assessed as cell growth at 0.01 uM incubated for 48 hrs by sulforhodamine B assay relative to control; assay type: functional; details: SW-620, 48 h, read-out: Activity
IGROV-1 [5] = assay: Growth inhibition of human IGROV1 cells assessed as cell growth at 0.01 uM incubated for 48 hrs by sulforhodamine B assay relative to control; assay type: functional; details: IGROV-1, 48 h, read-out: Activity
OVCAR-5 = assay: Growth inhibition of human OVCAR5 cells assessed as cell growth at 0.01 uM incubated for 48 hrs by sulforhodamine B assay relative to control; assay type: functional; details: OVCAR-5, 48 h, read-out: Activity
786-0 = assay: Growth inhibition of human 786-0 cells assessed as cell growth at 0.01 uM incubated for 48 hrs by sulforhodamine B assay relative to control; assay type: functional; details: 786-0, 48 h, read-out: Activity
T47D = assay: Growth inhibition of human T47D cells assessed as cell growth at 0.01 uM incubated for 48 hrs by sulforhodamine B assay relative to control; assay type: functional; details: read-out: Activity
MDA-MB-435 = assay: Growth inhibition of human MDA-MB-435 cells assessed as cell growth at 0.1 uM incubated for 48 hrs by sulforhodamine B assay relative to control; assay type: functional; details: MDA-MB-435, 48 h, read-out: Activity
SN12C = assay: Growth inhibition of human SN12C cells assessed as cell growth at 0.1 uM incubated for 48 hrs by sulforhodamine B assay relative to control; assay type: functional; details: read-out: Activity
Hs-578T = assay: Growth inhibition of human Hs578T cells assessed as cell growth at 0.1 uM incubated for 48 hrs by sulforhodamine B assay relative to control; assay type: functional; details: read-out: Activity
MOLT-4 = assay: Growth inhibition of human MOLT4 cells assessed as cell growth at 1 uM incubated for 48 hrs by sulforhodamine B assay relative to control; assay type: functional; details: MOLT-4, 48 h, read-out: Activity
HT-29 = assay: Growth inhibition of human HT-29 cells assessed as cell growth at 1 uM incubated for 48 hrs by sulforhodamine B assay relative to control; assay type: functional; details: HT-29, 48 h, read-out: Activity
LOX IMVI [6] = assay: Growth inhibition of human LOXIMVI cells assessed as cell growth at 1 uM incubated for 48 hrs by sulforhodamine B assay relative to control; assay type: functional; details: read-out: Activity
SK-MEL-5 = assay: Growth inhibition of human SK-MEL-5 cells assessed as cell growth at 1 uM incubated for 48 hrs by sulforhodamine B assay relative to control; assay type: functional; details: SK-MEL-5, 48 h, read-out: Activity
UACC-257 = assay: Growth inhibition of human UACC257 cells assessed as cell growth at 1 uM incubated for 48 hrs by sulforhodamine B assay relative to control; assay type: functional; details: UACC-257, 48 h, read-out: Activity
A498 = assay: Growth inhibition of human A498 cells assessed as cell growth at 1 uM incubated for 48 hrs by sulforhodamine B assay relative to control; assay type: functional; details: A498, 48 h, read-out: Activity
CAKI-1 [7] = assay: Growth inhibition of human Caki1 cells assessed as cell growth at 1 uM incubated for 48 hrs by sulforhodamine B assay relative to control; assay type: functional; details: CAKI-1, 48 h, read-out: Activity
NCI-H322M [8] = assay: Growth inhibition of human NCI-H322M cells assessed as cell growth at 100 uM incubated for 48 hrs by sulforhodamine B assay relative to control; assay type: functional; details: read-out: Activity
M14 = assay: Growth inhibition of human M14 cells assessed as cell growth at 100 uM incubated for 48 hrs by sulforhodamine B assay relative to control; assay type: functional; details: M14, 48 h, read-out: Activity
OVCAR-8 = assay: Growth inhibition of human OVCAR8 cells assessed as cell growth at 100 uM incubated for 48 hrs by sulforhodamine B assay relative to control; assay type: functional; details: OVCAR-8, 48 h, read-out: Activity
CAKI-1 [9] = assay: Growth inhibition of human Caki1 cells assessed as cell growth at 100 uM incubated for 48 hrs by sulforhodamine B assay relative to control; assay type: functional; details: CAKI-1, 48 h, read-out: Activity
[10] = read-out: LC50 (the source's name)
[11] = read-out: pLC50 (the source's name) (converted)

Structure (SMILES): COc1cc(Cl)cc(-c2nn(-c3cccc(NC(=O)Nc4ccc(Cl)c(Cl)c4)c3)cc2-c2ccncc2)c1
- GI50 (SR; read-out: GI50): 1.54 µM
- CC50 (SR; [10]): > 100 µM
- TGI (SR; read-out: TGI): 53 µM
- GI50 (SR; read-out: pGI50 (converted)): 1.55 µM
- CC50 (SR; [11]): > 100 µM
- TGI (SR; read-out: pTGI (converted)): 5.75 µM
- GI50 (NCI-H322M [1]; read-out: GI50): 3.26 µM
- CC50 (NCI-H322M [1]; [10]): > 100 µM
- TGI (NCI-H322M [1]; read-out: TGI): > 100 µM
- GI50 (NCI-H322M [1]; read-out: pGI50 (converted)): 3.31 µM
- CC50 (NCI-H322M [1]; [11]): > 100 µM
- TGI (NCI-H322M [1]; read-out: pTGI (converted)): > 100 µM
- GI50 (SNB-75; read-out: GI50): 2.11 µM
- CC50 (SNB-75; [10]): > 100 µM
- TGI (SNB-75; read-out: TGI): 45.6 µM
- GI50 (SNB-75; read-out: pGI50 (converted)): 2.14 µM
- CC50 (SNB-75; [11]): > 100 µM
- TGI (SNB-75; read-out: pTGI (converted)): 49 µM
- IC50 (U-251): 1.7 µM
- GI50 (U-251; read-out: GI50): 1.7 µM
- CC50 (U-251; [10]): 4.16 µM
- TGI (U-251; read-out: TGI): 60.3 µM
- GI50 (U-251; read-out: pGI50 (converted)): 1.7 µM
- CC50 (U-251; [11]): 41.7 µM
- TGI (U-251; read-out: pTGI (converted)): 6.03 µM
- GI50 (LOX IMVI [2]; read-out: GI50): 2.91 µM
- CC50 (LOX IMVI [2]; [10]): > 100 µM
- TGI (LOX IMVI [2]; read-out: TGI): 12.4 µM
- GI50 (LOX IMVI [2]; read-out: pGI50 (converted)): 2.88 µM
- CC50 (LOX IMVI [2]; [11]): > 100 µM
- TGI (LOX IMVI [2]; read-out: pTGI (converted)): 30.9 µM
- GI50 (Malme-3M; read-out: GI50): 2.06 µM
- CC50 (Malme-3M; [10]): > 100 µM
- TGI (Malme-3M; read-out: TGI): 75.5 µM
- GI50 (Malme-3M; read-out: pGI50 (converted)): 2.04 µM
- CC50 (Malme-3M; [11]): > 100 µM
- TGI (Malme-3M; read-out: pTGI (converted)): 7.94 µM
- GI50 (SK-MEL-28; read-out: GI50): 2.96 µM
- CC50 (SK-MEL-28; [10]): > 100 µM
- TGI (SK-MEL-28; read-out: TGI): 35.6 µM
- GI50 (SK-MEL-28; read-out: pGI50 (converted)): 2.95 µM
- CC50 (SK-MEL-28; [11]): > 100 µM
- TGI (SK-MEL-28; read-out: pTGI (converted)): 37.2 µM
- GI50 (IGROV-1 [3]; read-out: GI50): 4.36 µM
- CC50 (IGROV-1 [3]; [10]): > 100 µM
- TGI (IGROV-1 [3]; read-out: TGI): > 100 µM
- GI50 (IGROV-1 [3]; read-out: pGI50 (converted)): 4.37 µM
- CC50 (IGROV-1 [3]; [11]): > 100 µM
- TGI (IGROV-1 [3]; read-out: pTGI (converted)): > 100 µM
- growth at 0.01 µM (RPMI-8226): 99%
- growth at 0.01 µM (NCI-H322M [4]): 101%
- growth at 0.01 µM (SW-620): 100%
- growth at 0.01 µM (IGROV-1 [5]): 98%
- growth at 0.01 µM (OVCAR-5): 93%
- growth at 0.01 µM (786-0): 100%
- growth at 0.01 µM (T47D): 94%
- growth at 0.1 µM (MDA-MB-435): 99%
- growth at 0.1 µM (SN12C): 100%
- growth at 0.1 µM (Hs-578T): 97%
- growth at 1 µM (MOLT-4): 70%
- growth at 1 µM (HT-29): 62%
- growth at 1 µM (LOX IMVI [6]): 91%
- growth at 1 µM (SK-MEL-5): 88%
- growth at 1 µM (UACC-257): 80%
- growth at 1 µM (A498): 73%
- growth at 1 µM (CAKI-1 [7]): 79%
- growth at 100 µM (NCI-H322M [8]): 3%
- growth at 100 µM (M14): -36%
- growth at 100 µM (OVCAR-8): -9%
- growth at 100 µM (CAKI-1 [9]): -8%
